Source: PubChem BioAssay AID489033 (Sanford-Burnham Center for Chemical Genomics, 2010)
Calls of active or inactive are those of the source. The rule behind the calls is not given here.

What follows are compounds tested on 697B B-cell line, NF-kB luciferase reporter luminescence (assay: inhibitors of B-cell NF-kB luciferase signal – 697B cells, luminescence, selectivity assay for T-cell antigen receptor NF-kB inhibitors, dose response (AID 489033)).
`O=S1(=O)Nc2c(ccc3cccnc23)-c2ccccc21` showed an IC50 of 0.54 µM.
In the case of `Cc1ccc(C(=O)c2cc([N+](=O)[O-])ccc2N2CCCCC2)c(C)c1`, the IC50 is reported as > 80 µM (inactive).
`CCCN(CCC)C1=CC(=[N+]2CCCC2)CC(C)(C)C1` was tested, and the IC50 was 22.6 µM (inactive).
With `COc1ccc(/C=N\NC(=O)c2ccccc2F)cc1COc1ccc(F)cc1F` the IC50 was > 80 µM (inactive).
Compound `Cc1ccc(C[n+]2c(-c3ccc(C)cc3)cc(-c3ccc(C)cc3)cc2-c2ccc(C)cc2)cc1` has an IC50 of 0.29 µM.
`COc1ccc(/C=c2/sc3n(c2=O)C(c2ccccc2OC)C2=C(N=3)c3ccccc3CC2)cc1O` (stereo not given) was tested, and the IC50 was > 80 µM (inactive).
For `CC(C)c1ccc(/C=N/Nc2ccc(C(=O)O)cc2)cc1`, the IC50 was 10.7 µM.
In the case of `CCOc1ccccc1C(=O)N1CCN(c2cccc(Cl)c2)CC1`, the IC50 is reported as > 80 µM (inactive).
With `O=C(NCc1ccc2c(c1)OCO2)c1cc([N+](=O)[O-])ccc1N1CCOCC1` the IC50 was > 80 µM (inactive).
`Cc1cc2c(cc1C)C(c1ccccc1OC(C)C)CC(=O)N2` (stereo not given) was tested, and the IC50 was > 80 µM (inactive).
In the case of `CCSc1nc2ccccc2n1C(=O)/C=C\c1ccc(OC)c(OC)c1`, the IC50 is reported as 4.67 µM.
For `COc1cc(Cn2c(-c3nonc3N)nc3ccccc32)ccc1C`, the IC50 was > 80 µM (inactive).
With `Cc1ccc(C(=O)O/N=C(\N)c2ccccn2)c(C)c1` the IC50 was 0.85 µM.
In the case of `COC(=O)c1[nH]c2c(c1C)C(=O)CC(c1cccs1)C2` (stereo not given), the IC50 is reported as > 80 µM (inactive).
For `Cc1cccc(N2CCN(C(=O)c3c(-c4ccccc4)noc3C)CC2)c1C`, the IC50 was > 80 µM (inactive).
In the case of `CCOC(=O)Nc1nc(-c2ccccc2)c(C(=O)c2ccc(Cl)cc2)s1`, the IC50 is reported as > 80 µM (inactive).
With `CCOc1ccccc1C1CC(=O)Nc2cc3c(cc21)OCO3` (stereo not given) the IC50 was > 80 µM (inactive).
Compound `CC(=O)c1c(C)[nH]c(C(=O)OCC(=O)Nc2ccc(C)cc2[N+](=O)[O-])c1C` has an IC50 of 11.3 µM.
With `Cc1noc(C)c1CSc1nc2ccccc2c(=O)n1-c1ccccc1` the IC50 was > 80 µM (inactive).
For `CCOC(=O)Nc1nc(-c2ccccc2)c(C(=O)c2ccccc2)s1`, the IC50 was > 80 µM (inactive).
`Cc1ccc(C(=O)Nc2cc3ccccc3oc2=O)cc1` gave an IC50 of 2.11 µM.
For `CC(=O)Nc1ccc(S(=O)(=O)N2c3ccc(F)cc3CCC2C)cc1` (stereo not given), the IC50 was > 80 µM (inactive).
For `CCOc1ccc(S(=O)(=O)NCc2ccccn2)cc1NC(=O)c1ccccc1`, the IC50 was > 80 µM (inactive).
In the case of `COc1ccc(OC)c(-c2nnc3n2N=C(c2ccc(OC)c(OC4CCCC4)c2)CS3)c1`, the IC50 is reported as 35.3 µM (inactive).
`COc1ccc(Cn2c(SCc3ccc(C)cc3)nc3cc(OC)c(OC)cc3c2=N)cc1Cl` gave an IC50 of 4.8 µM.
`Cc1[nH]n(-c2ccccc2)c(=O)c1/C=N/Nc1nncc(-c2ccccc2)n1` was tested, and the IC50 was > 80 µM (inactive).
`CCN(CC)c1ccc(NC(=O)c2cc(OC)cc(OC)c2)c(C)c1` was tested, and the IC50 was > 80 µM (inactive).
With `COc1ccc(C(NC(=O)C(C)C)c2ccc3cccnc3c2O)cc1` (stereo not given) the IC50 was > 80 µM (inactive).
`CC(C)(C)c1ccc(C(=O)Nc2ccc(Oc3cccnc3)nc2)cc1` gave an IC50 of 3.28 µM.
For `Cc1oc(-c2ccc(Cl)cc2)nc1CS(=O)CC(=O)NCCCN1CCN(Cc2ccccc2)CC1` (stereo not given), the IC50 was 60.8 µM (inactive).
For `CC1CCN(c2c(NCc3ccc(C(=O)N4CCc5ccccc54)cc3)c(=O)c2=O)CC1`, the IC50 was > 80 µM (inactive).
With `O=C(O)c1ccc(N/N=C/c2ccc3c(c2)OCO3)cc1` the IC50 was 1.04 µM.
`CCCCCCCCCCCCCCCC[n+]1ccc(/C=N/O)cc1` gave an IC50 of 13 µM.
With `Cc1cccc(NS(=O)(=O)c2ccc(-c3cnc(C4CC4)o3)cc2)c1C` the IC50 was 36.7 µM (inactive).
Work on `CC(C)(C)c1ccc(C(=O)O/N=C(\N)c2ccccn2)cc1` yielded an IC50 of 0.88 µM.
With `CCOC(=O)C(C)Oc1cccc2c(=O)n(CC(=O)NCc3ccc4c(c3)OCO4)ccc12` (stereo not given) the IC50 was > 80 µM (inactive).
With `O=C(Nc1ccc(S(=O)(=O)N2CCCC2)cc1)c1ccc(CN2CCc3ccccc3C2)cc1` the IC50 was > 80 µM (inactive).
`COc1cc(C2c3cc4c(cc3CC3COC(=O)C32)OCO4)cc(OC)c1OC` (stereo not given) was tested, and the IC50 was > 80 µM (inactive).
`O[C@@H]1[C@@H](O)C=C2CCN3Cc4cc5c(cc4[C@H]1C23)OCO5` (stereo not given in full) gave an IC50 of 3.28 µM.
`O=C1c2c(O)ccc(O)c2C(=O)c2c(NCCNCCO)ccc(NCCNCCO)c21` showed an IC50 of 4.2 µM.
For `CC1=C([N+](=O)[O-])C(c2ccccc2)C2=C(N1)c1ccccc1C2=O` (stereo not given), the IC50 was > 80 µM (inactive).
In the case of `CCCCC(=O)NC(c1ccc(Cl)cc1Cl)c1ccc2cccnc2c1O` (stereo not given), the IC50 is reported as > 80 µM (inactive).
With `Cc1cc(-c2ccc(S(=O)(=O)N(C)c3ccc(C)c(C)c3)s2)on1` the IC50 was > 80 µM (inactive).
`CCOc1ccc(N(CC(=O)Nc2ccccc2C)S(=O)(=O)c2c(C)noc2C)cc1` was tested, and the IC50 was > 80 µM (inactive).
`CNC[C@H](CC1CCCCC1)NC[C@H](Cc1ccccc1)NCCC12CC3CC(CC(C3)C1)C2` was tested, and the IC50 was 7.73 µM.
`COc1cccc(-c2cc(C(=O)Nc3cc(C)n(Cc4ccc(Cl)cc4)n3)no2)c1` was tested, and the IC50 was > 80 µM (inactive).
For `CCC(=O)NC(c1cccs1)c1ccc2cccnc2c1O` (stereo not given), the IC50 was > 80 µM (inactive).
`Cc1cc(C)cc(NC(=O)c2ccc([N+](=O)[O-])o2)c1` was tested, and the IC50 was 21.3 µM (inactive).
In the case of `CCN(CC)c1ccc2nc3ccccc3[n+](CC)c2c1`, the IC50 is reported as 45.8 µM (inactive).
`CCc1ccc(/C=N/NC(=O)c2cc(C3CC3)nc3ccccc23)s1` was tested, and the IC50 was 23.3 µM (inactive).
For `CCN1C/C(=C/c2ccc(OC)c(O)c2)C(=O)/C(=C/c2ccc(OC)c(O)c2)C1`, the IC50 was 25.2 µM (inactive).
With `Cc1ccc2c(c1)sc(-c1ccc(N(C)C)cc1)[n+]2C` the IC50 was 33.6 µM (inactive).
Compound `CCCSc1nnc(Sc2nnnn2-c2ccccc2)s1` has an IC50 of 7 µM.
In the case of `COc1cc(/C=C/C(=O)c2ccc([N+](=O)[O-])o2)ccc1O`, the IC50 is reported as 14.5 µM.
`COc1ccc(CCNc2nnc(Sc3nnnn3-c3ccccc3)s2)cc1OC` was tested, and the IC50 was 18.9 µM.
In the case of `CC(=O)Nc1ccc(S(=O)(=O)N2CCSc3ccccc32)cc1`, the IC50 is reported as > 80 µM (inactive).
Compound `Cn1nc(-c2ccccn2)nc2c(=O)n(C)c(=O)nc1-2` has an IC50 of 4.12 µM.
In the case of `Cc1cccc(N=Nc2ccc(O)c3ncccc23)c1`, the IC50 is reported as 1.1 µM.
`CC1C/C(=C/c2ccncc2)C(=O)/C(=C/c2ccncc2)C1` (stereo not given) gave an IC50 of 8.39 µM.
Work on `Nc1nc2n[nH]nc2c(=O)[nH]1` yielded an IC50 of 2.56 µM.
Compound `Cn1nc([N+](=O)[O-])nc1Sc1nnc(-c2ccccc2)o1` has an IC50 of 17.8 µM.
With `CCOC(=O)c1ccccc1NS(=O)(=O)c1ccc(OCC)cc1` the IC50 was > 80 µM (inactive).
For `CC(C)Oc1ccccc1C1CC(=O)Nc2cc3c(cc21)OCO3` (stereo not given), the IC50 was > 80 µM (inactive).
With `COc1ccc(-c2c(C#N)c(N)nc3c2CCc2ccccc2-3)cc1OC` the IC50 was 54.4 µM (inactive).
`CCC(C)(C)c1ccc(OCCCC[n+]2cccc(C)c2C)c(C(C)(C)CC)c1` gave an IC50 of 16.2 µM.
In the case of `COC(=O)C(Cc1ccc(N(CCCl)CCCl)cc1)N=Cc1ccccc1O` (stereo not given), the IC50 is reported as 0.31 µM.
For `CCC(=O)NC(c1ccc(C)cc1)c1ccc2cccnc2c1O` (stereo not given), the IC50 was > 80 µM (inactive).
For `Cc1ccc2nc(C)c(CN3CCN(c4ccc([N+](=O)[O-])cc4Cl)CC3)n2c1`, the IC50 was > 80 µM (inactive).
In the case of `Cn1cc(C(=O)N/N=C/c2c(O)ccc3ccccc23)ccc1=O`, the IC50 is reported as > 80 µM (inactive).
In the case of `CCOC(=O)c1ccccc1NC(=O)Cn1c(-c2nonc2N)nc2ccccc21`, the IC50 is reported as > 80 µM (inactive).
With `COc1ccc2c(C)nc(Nc3nc(-c4ccccc4)cc(=O)[nH]3)nc2c1` the IC50 was > 80 µM (inactive).
With `O=C(N/N=C/c1c(O)ccc2ccccc12)c1cccc(C(F)(F)F)c1` the IC50 was 18.6 µM.
Work on `Cc1ccc(NC(=O)Nc2ccnc(-c3cccnc3)n2)cc1` yielded an IC50 of 1.05 µM.
With `CCCC1=Nc2cc(C(=O)NCCCOCC)ccc2Sc2ccccc21` the IC50 was > 80 µM (inactive).
`CCC/C(O)=C1\C(=O)CC(C)(C)CC1=Nc1ccc(OC)cc1OC` was tested, and the IC50 was > 80 µM (inactive).
In the case of `Cc1cc(-n2c(C)cc(C(=O)CSc3ncnc4ccccc34)c2C)no1`, the IC50 is reported as 67 µM (inactive).
Work on `CC(C)(C)c1ccc(C(=O)O/N=C(\N)c2ccccc2)cc1` yielded an IC50 of 0.17 µM.
`CCCCC(=O)NC(c1ccc(N(C)C)cc1)c1ccc2cccnc2c1O` (stereo not given) was tested, and the IC50 was > 80 µM (inactive).
With `O=C(CNC(=O)c1ccco1)N=Nc1c(O)n(CCc2ccccc2)c2ccccc12` the IC50 was > 80 µM (inactive).
`Cn1c2c(c(=O)n(C)c1=O)C(C(F)(F)F)(C(F)(F)F)N=C(c1ccc(Cl)cc1)N2` gave an IC50 of 1.93 µM.
For `Nc1ncn([C@@H]2O[C@H](CO)[C@@H](O)[C@H]2O)c(=O)n1`, the IC50 was 11.9 µM.
In the case of `CCOc1ccc(S(=O)(=O)NCc2ccccn2)cc1NC(=O)c1ccccc1F`, the IC50 is reported as > 80 µM (inactive).
Compound `O=C(N/N=C(\c1ccccc1)c1cccnc1)c1cccc(F)c1` has an IC50 of 3.1 µM.
Work on `COc1cc(C2c3cc4c(cc3C(OC3OC5COC(c6cccs6)OC5C(O)C3O)C3COC(=O)C23)OCO4)cc(OC)c1O` (stereo not given) yielded an IC50 of 3.94 µM.
`COc1ccc(CCN2C(=O)C3C4C=CC(C3C2=O)C2C(=O)N(CCc3ccc(OC)c(OC)c3)C(=O)C42)cc1OC` (stereo not given) was tested, and the IC50 was > 80 µM (inactive).
For `Cc1cc(C)cc(NS(=O)(=O)c2ccc(-c3cnc(C4CC4)o3)cc2)c1`, the IC50 was 53.1 µM (inactive).
`O=C(Nc1cccc2ccccc12)OC1C=CS(=O)(=O)C1` (stereo not given) was tested, and the IC50 was 10.7 µM.
For `COc1ccccc1NC(=O)c1cnc(Nc2ccccc2OC)c2ccccc12`, the IC50 was > 80 µM (inactive).
`CCCC(=O)Nc1nc2ccc(NC(=O)c3c(F)c(F)c(OC)c(F)c3F)cc2s1` was tested, and the IC50 was > 80 µM (inactive).
Work on `C[C@]12CC[C@H]3[C@@H](CC[C@]4(O)C[C@@H](O)CC[C@]34C=O)[C@@]1(O)CC[C@@H]2C1=CC(=O)OC1` yielded an IC50 of 1.13 µM.
Compound `CCCCCCCCCCn1c2c(c(=N)c3c1CCC3)CCC2` has an IC50 of 2.68 µM.
`COC(=O)Nc1ccc(S(=O)(=O)N2CCCc3ccccc32)cc1` was tested, and the IC50 was > 80 µM (inactive).
With `CCCC(=O)NC(c1ccc(N(C)C)cc1)c1ccc2cccnc2c1O` (stereo not given) the IC50 was > 80 µM (inactive).
For `CC(C)n1c(CN(C)Cc2ccccc2)nc2c1c(=O)n(C)c(=O)n2C`, the IC50 was 43.7 µM (inactive).
With `COc1cc2c(c(OC)c1OC)-c1ccc(OC)c(=O)cc1[C@@H](N(C)CC#CCO)CC2` the IC50 was > 80 µM (inactive).
With `Cn1nc(CC(=O)Nc2ccc(N3CCN(C(=O)OC(C)(C)C)CC3)cc2)c2ccccc2c1=O` the IC50 was > 80 µM (inactive).
With `CCN(CC)S(=O)(=O)c1cc(NC(=O)CNc2cccc(S(=O)(=O)N3CCCC3)c2)ccc1C` the IC50 was > 80 µM (inactive).
In the case of `CCOc1ccccc1NC(=O)Cn1nnc(C(=O)NCc2ccco2)c1N`, the IC50 is reported as > 80 µM (inactive).
Compound `Cc1cnc(NC(=O)c2ccc3c(c2)OCCO3)s1` has an IC50 of 1.08 µM.
In the case of `Cc1ccc(S(=O)(=O)Nc2ccccc2-c2ccccc2)cc1`, the IC50 is reported as > 80 µM (inactive).
